Assay results: patent US8691949B2, “Peptide having anti-diabetic activity and use thereof” (MG Pharma Inc., priority 2008, dated 2014)
Residues, ends and D or L forms follow the SMILES beside them.

Assay: in vivo
Conditions: mouse, po, 2 g/kg body weight

## CC(C)C[C@H](NC(=O)[C@H](CCC(=O)O)NC(=O)[C@H](CO)NC(=O)[C@@H](N)CC(C)C)C(=O)O [LSEL, Leu-Ser-Glu-Leu] (H-LSEL-OH)
  LD50: > 2000 mg/kg
